Experimental data reported in patent US20180100859A1, “SURROGATE FUNCTIONAL BIOMARKER FOR SOLID TUMOR CANCER” (EUTROPICS PHARMACEUTICALS, INC., priority 2015, published 2018).

Experiments:
Assay type in all cases: cell-based
[1] = biological target: Bcl-xL/Bim heterodimer in SKBR3 breast cancer cells (Homo sapiens, UniProt Q07817); test: Detection of Bcl-xL/Bim heterodimer with ANTI-HSBXB antibody in treated breast cancer cells, LI-COR imager
Description: ABT-263 is a pro-apoptotic compound that can be used on whole cells to disrupt BH3 mediated interactions. Disruption of these heterodimers in treated cells is detected as loss of ANTI-HSBXB signal. Here the cells were treated with various concentrations of ABT-263 for 10 hours at 37° C., then rinsed, fixed with 4% PFA, and incubated with ANTI-HSBXB (a Bcl-xL/Bim heterodimer-specific antibody). IRDye 800CW goat anti-mouse antibody was used to detect the heterodimer specific mouse monoclonal antibody, and IRDye 800CW Goat anti-rabbit antibody was used to detect a commercial Bcl-xL rabbit monoclonal antibody. Cell numbers were normalized by using CellTag 700 Stain.

[2] = test system: Molm 13 cells; test: Mitochondrial (BH3) profiling, Bcl-xL priming; conditions: Molm 13 leukemia cell line, FIG. 3
[3] = test system: DHL-6 cells; test: Mitochondrial (BH3) profiling, Bcl-xL priming; conditions: DHL-6 leukemia cell line, compared with Molm 13, FIG. 3
[4] = test system: AHR cells; test: Mitochondrial (BH3) profiling, Bcl-xL priming; conditions: AHR leukemia cell line, FIG. 3
Source text: The Bcl-xL/Bim heterodimer (HSBXB) can be detected by flow cytometry using a method for intracellular staining with the HSBXB antibody. Three leukemia cell lines, AHR, DHL6 and MOLM 13 were chosen based on their having differing amounts of Bcl-xL, Bim priming as determined by mitochondrial profiling. Consequently, the response to the Bcl-xL restricted, the Bcl-xL/Bim dimer “priming”, is known to be present at different amounts. A high signal mediated by Hrk-BH3 peptide indicates the existence of Bcl-xL/Bim heterodimer.
The HSBXB signal was assessed by flow cytometry and compared to the Hrk-BH3 peptide signal in the BH3 profiling assay. Here, AHR, DHL6 and MOLM13 cells were incubated on ice for 3 hours, and then washed and incubated with HSBXB antibody or Bcl-xL antibody at 10 ug/ml for 20 minutes, and then washed and stained with secondary Alexa488-conjugated goat anti-mouse. Signals were corrected to IgG-2A isotype or secondary alone control. The Hrk-BH3 signal in the mitochondrial profiling of the three cell lines was plotted against normalized HSBXB FACS signal.

Sequence of Bcl-xL/Bim heterodimer in SKBR3 breast cancer cells (Q07817 whole entry, one chain of several): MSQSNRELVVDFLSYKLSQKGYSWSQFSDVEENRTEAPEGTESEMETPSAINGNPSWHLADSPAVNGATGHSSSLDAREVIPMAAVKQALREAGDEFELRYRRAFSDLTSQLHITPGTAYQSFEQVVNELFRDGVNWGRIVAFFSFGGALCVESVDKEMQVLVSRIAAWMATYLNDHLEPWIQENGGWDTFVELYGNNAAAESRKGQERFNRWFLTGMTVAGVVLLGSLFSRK

| Compound | time window where the disruption can be detected prior to caspase mediated membrane disruption [1] | percent heterodimer specific signal (ANTI-HSBXB detection) ([1]; various concentrations, 10 hours at 37° C., FIG. 2) | degree of Bcl-xL priming relative to positive control [2] | degree of Bcl-xL priming relative to positive control [3] | degree of Bcl-xL priming relative to positive control [4] |
| --- | --- | --- | --- | --- | --- |
| CC1(C)CCC(c2ccc(Cl)cc2)=C(CN2CCN(c3ccc(C(=O)NS(=O)(=O)c4ccc(N[C@H](CCN5CCOCC5)CSc5ccccc5)c(S(=O)(=O)C(F)(F)F)c4)cc3)CC2)C1 [ABT-263] | 10 to 12 h | decreasing the quantity of ANTI-HSBXB detection | – | – | – |
| Hrk-BH3: BH3 peptide HRK, SSAAQLTAARLKALGDELHQ, SEQ ID NO 8; Bcl-xL restricted (listed as Homo sapiens) | – | – | less than 5% | slightly higher | above 60% |
